According to ChEMBL document CHEMBL1132272, “Prediction of ligand-receptor binding thermodynamics by free energy force field three-dimensional quantitative structure-activity relationship analysis: applications to a set of glucose analogue inhibitors of glycogen phosphorylase” (J Med Chem, 1999):

Assay: The compound was evaluated for the inhibition of glycogen phosphorylase

Row | Ki [µM] | Compound
1 | 140 | NC(=O)N[C@H]1O[C@H](CO)[C@@H](O)[C@H](O)[C@H]1O
2 | 370 | NC(=O)C1OC(CO)C(O)C(O)C1O (stereo in doubt; 10)
3 | 1000 | OCC1OC(S)C(O)C(O)C1O (stereo unspecified)
4 | 160 | CNC(=O)C1OC(CO)C(O)C(O)C1O (stereo in doubt; 8)
5 | 980 | NNC(=O)[C@@H]1O[C@H](CO)[C@@H](O)[C@H](O)[C@H]1O
6 | 36700 | CNC(=O)C1OC(CO)C(O)C(O)C1O (stereo in doubt; 22)
7 | 45 | O=C(CCl)N[C@H]1O[C@H](CO)[C@@H](O)[C@H](O)[C@H]1O
8 | 81 | O=C(N[C@H]1O[C@H](CO)[C@@H](O)[C@H](O)[C@H]1O)c1ccccc1
9 | 44 | O=C(CBr)N[C@H]1O[C@@H](CO)[C@@H](O)[C@H](O)[C@@H]1O
10 | 15800 | OC[C@H]1O[C@](O)(CO)[C@@H](O)[C@H](O)[C@H]1O
11 | 1500 | OCC1OC(CO)C(O)C(O)C1O (stereo unspecified)
12 | 39 | CCC(=O)N[C@H]1O[C@H](CO)[C@@H](O)[C@H](O)[C@H]1O
13 | 94 | CCCC(=O)N[C@H]1O[C@H](CO)[C@@H](O)[C@H](O)[C@H]1O
14 | 370 | NCC(=O)N[C@H]1O[C@@H](CO)[C@@H](O)[C@H](O)[C@@H]1O
15 | 5400 | O=C(Nc1ccccc1)C1OC(CO)C(O)C(O)C1O (stereo unspecified)
16 | 440 | NC(=O)C1OC(CO)C(O)C(O)C1O (stereo in doubt; 11)
17 | 24700 | CO[C@@H]1O[C@H](CO)[C@H](O)[C@H](O)[C@H]1O
18 | 34500 | NCC1OC(CO)C(O)C(O)C1O (stereo unspecified)
19 | 53100 | CC1OC(CO)C(O)C(O)C1O (stereo unspecified)
20 | 32 | CC(=O)N[C@H]1O[C@H](CO)[C@@H](O)[C@H](O)[C@H]1O
21 | 9000 | N#CC[C@@H]1O[C@H](CO)[C@@H](O)[C@H](O)[C@H]1O
